≈ marks a conversion by molar mass, not a printed value.
Tests used:
C. albicans [1] = assay: Broth microdilution MIC, planktonic cells; assay type: cell-based, Candida albicans; settings: C. albicans single species culture, RPMI-1640, 48 h
Protocol: (§1) Minimum inhibitory concentrations (MICs) for antibacterial and antifungal agents were determined using the broth microdilution method according to CLSI guidelines M07-A9 (for S. aureus) and M27-A3 (for C. albicans), but replacing Muller-Hinton broth with RPMI-1640 for antibacterial MIC testing. One hundred microlitres of two-fold serial dilutions of the drugs prepared in RPMI-1640 were added into the wells of 96-well microplates. Exponentially grown cultures were diluted in RPMI-1640 to a density of ˜1×10^3 CFU/mL for C. albicans and ˜1×10^6 CFU/mL for S. aureus and 100 μL were added to each well. Microplates were incubated for 18 h at 35° C. for S. aureus and 48 h for C. albicans. Bacterial or fungal growth was examined visually with the aid of a mirror reader. The antibacterial MIC was defined as the lowest concentration resulting in complete growth inhibition. The MIC of antifungals was read as the lowest concentration that prevents discernible growth for amphotericin B or polymers, or as the lowest concentration that inhibits at least 50% of fungal growth for fluconazole and caspofungin, corresponding to a score of zero or two in the CLSI M27-A3 protocol.

C. albicans biofilms = assay: Antimicrobial susceptibility of single biofilm (XTT, biofilm MIC80); assay type: cell-based, Candida albicans; settings: for Biofilm MIC80: C. albicans single species biofilm, 48 h treatment; for Activity against C. albicans monomicrobial biofilms: compared with planktonic growth
Protocol: (§2) Single biofilms of S. aureus or C. albicans were set up in 96-well microplates as described above. After overnight incubation, the cell suspensions were aspirated and the wells were rinsed twice with 100 μL of PBS per well to remove non-adherent cells. Two hundred microlitres of antimicrobial agents were added into each well, and the treatments lasted for 18 h for S. aureus and 48 h for C. albicans. After the treatment, the suspensions were removed and the microwells were washed twice with PBS. Two hundred microlitres of 2, 3-bis (2-methoxy-4-nitro-5-sulfophenyl)-5-[(phenylamino) carbonyl]-2H-tetrazolium hydroxide (XTT, 0.5 mg/L) solution were added into each well and the microplate were incubated at 37° C. in the dark for 2 h. One hundred microliters of XTT solution were transferred to a new microplate and read at OD492. Alternatively, the efficacy of antimicrobial agents against biofilms was determined based on the reduction in viable counts after exposure to antimicrobials. The ratio of cell survival (cell density after antimicrobial treatment) relative to antimicrobial-free culture (cell density of the drug-free biofilms) (×100) was calculated.

S. aureus biofilms = assay: as above; assay type: cell-based, Staphylococcus aureus; settings: S. aureus single species biofilm, 18 h treatment
Protocol: as §2

[2] = system: S. aureus 24 h single biofilms; assay: Catheter lock solution re-growth assay (MBEC); assay type: cell-based, Staphylococcus aureus; settings: S. aureus 24 h biofilm, 18 h exposure
Protocol: (§3) Biofilms were washed three times with saline to remove the residual antimicrobial agents. Two hundred microliter volumes of TSB were then added to each well and microplates were incubated at 35° C. for a further 48 h. A microplate shaker (speed 2) ([…], Flow laboratories, Germany) was used to facilitate the multiplication and release of any living cells remaining in the biofilms. After 48 h, 150 μL of the contents in each well in the microplate was transferred to a U-bottom microplate and examined visually for turbidity. The lowest concentration of antimicrobial agents corresponding to clear wells was defined as the minimum biofilm eradication concentration (MBEC) for successful use as CLS.

[3] = system: C. albicans 24 h single biofilms; assay: Catheter lock solution re-growth assay (MBEC); assay type: cell-based, Candida albicans; settings: C. albicans 24 h biofilm, 18 h exposure
Protocol: as §3

[4] = system: C. albicans-S. aureus polymicrobial biofilms; assay: Catheter lock solution re-growth assay (MBEC); assay type: cell-based, Candida albicans and Staphylococcus aureus; settings: polymicrobial 24 h biofilm, 18 h exposure
Protocol: as §3

C. albicans [5] = assay: Planktonic MIC in presence or absence of isolated biofilm matrix; assay type: cell-based, Candida albicans
Protocol: as §1
(§4) Extracellular matrix was isolated from Candida or polymicrobial biofilms following the method reported in PLoS pathogens 2012, 8:e1002848. Biofilms were established by growing cultures in 6-well TCPS microplates for 48 h at 37° C. Supernatants were carefully removed from each well and the biofilms were washed once with sterile distilled water. One millilitre of distilled water was added into each well, and the biofilms were removed using a cell scraper. This step was repeated three times. The suspensions containing dislodged biofilms were then transferred into a 50 ml Falcon tube, sonicated with a Branson Sonicator for 10 min (duty cycle constant, output 20%). The suspensions were vortexed for 2 min at full speed (4×30 s), prior to centrifugation at 6000 rpm for 15 min for 5 times. The supernatants containing the extracellular matrix were removed and stored at −20° C. […]

S. aureus [6] = assay: Broth microdilution MIC, planktonic cells; assay type: cell-based; settings: Staphylococcus aureus; S. aureus single species culture, RPMI-1640, 18 h
S. aureus [7] = assay: Planktonic MIC in presence or absence of isolated biofilm matrix; assay type: cell-based, Staphylococcus aureus
Protocol: as §1, §4

In the case of `C[C@@H]1[C@H](O)[C@@H](C)/C=C/C=C/C=C/C=C/C=C/C=C/C=C/[C@H](O[C@@H]2O[C@H](C)[C@@H](O)[C@H](N)[C@@H]2O)C[C@@H]2O[C@](O)(C[C@@H](O)C[C@@H](O)[C@H](O)CC[C@@H](O)C[C@@H](O)CC(=O)O[C@H]1C)C[C@H](O)[C@H]2C(=O)O` [Amphotericin B, amphotericin B], the “Planktonic MIC” value (C. albicans [1]) is reported as 1 µg/mL, the “Biofilm MIC80” value (C. albicans biofilms) is reported as 1 µg/mL and the “Activity against C. albicans monomicrobial biofilms” value (C. albicans biofilms) is reported as “retaining their activities”.

For `CC[C@H](C)C[C@H](C)CCCCCCCCC(=O)N[C@H]1C[C@@H](O)[C@@H](NCCN)NC(=O)[C@@H]2[C@@H](O)CCN2C(=O)[C@H]([C@H](O)CCN)NC(=O)[C@H]([C@H](O)[C@@H](O)c2ccc(O)cc2)NC(=O)[C@@H]2C[C@@H](O)CN2C(=O)[C@H]([C@@H](C)O)NC1=O` [Caspofungin, caspofungin], the MIC (C. albicans [1]; Candida albicans) was 1 µg/mL (≈ 0.915 µM), the “Biofilm MIC80” value (C. albicans biofilms) was 0.12 µg/mL and the “Activity against C. albicans monomicrobial biofilms” value (C. albicans biofilms) was “retaining their activities”.

In the case of `O=C(O)c1cn(C2CC2)c2cc(N3CCNCC3)c(F)cc2c1=O` [Ciprofloxacin, ciprofloxacin], the “Biofilm MIC80” value (S. aureus biofilms) is reported as greater than 1024 µg/mL.

In the case of `CCO` [Ethanol, ethanol], the “MBEC as catheter lock solution” value [2] is reported as 20% (V/V), the “MBEC as catheter lock solution” value [3] is reported as 20% (V/V) and the “MBEC as catheter lock solution” value [4] is reported as 20% (V/V). For the same compound, the “MBEC as catheter lock solution” value ([4]; listed as ethanol) was 20 % (V/V).

In the case of `OC(Cn1cncn1)(Cn1cncn1)c1ccc(F)cc1F` [Fluconazole, fluconazole], the “Biofilm MIC80” value (C. albicans biofilms) is reported as greater than 1024 µg/mL, the “Increase in MIC in presence of biofilm matrix” value (C. albicans [5]; C. albicans or polymicrobial biofilm matrix) is reported as 16 fold and the “MIC, C. albicans biofilm matrix” value (C. albicans [5]; in presence of C. albicans biofilm matrix) is reported as 8 µg/mL. For the same compound, the “MIC, polymicrobial biofilm matrix” value (C. albicans [5]; in presence of polymicrobial biofilm matrix) was 8 µg/mL.

In the case of `Cc1onc(-c2ccccc2)c1C(=O)N[C@@H]1C(=O)N2[C@@H]1SC(C)(C)[C@@H]2C(=O)O` [Oxacillin, oxacillin], the MIC (S. aureus [6]) is reported as 0.06 µg/mL (≈ 0.149 µM) and the “Biofilm MIC80” value (S. aureus biofilms) is reported as greater than 1024 µg/mL.

In the case of `CO[C@H]1/C=C/O[C@@]2(C)Oc3c(C)c(O)c4c(O)c(c(/C=N/N5CCN(C)CC5)c(O)c4c3C2=O)NC(=O)/C(C)=C\C=C\[C@H](C)[C@H](O)[C@@H](C)[C@@H](O)[C@@H](C)[C@H](OC(C)=O)[C@@H]1C` [Rifampicin, rifampicin], the MIC (S. aureus [6]) is reported as 0.015 µg/mL (≈ 0.0182 µM) and the “Biofilm MIC80” value (S. aureus biofilms) is reported as greater than 1024 µg/mL.

For `CN[C@H](CC(C)C)C(=O)N[C@H]1C(=O)N[C@@H](CC(N)=O)C(=O)N[C@H]2C(=O)N[C@H]3C(=O)N[C@H](C(=O)N[C@H](C(=O)O)c4cc(O)cc(O)c4-c4cc3ccc4O)[C@H](O)c3ccc(c(Cl)c3)Oc3cc2cc(c3O[C@@H]2O[C@H](CO)[C@@H](O)[C@H](O)[C@H]2O[C@H]2C[C@](C)(N)[C@H](O)[C@H](C)O2)Oc2ccc(cc2Cl)[C@H]1O` [Vancomycin, vancomycin], the MIC (S. aureus [6]) was 1 µg/mL (≈ 0.69 µM), the “Biofilm MIC80” value (S. aureus biofilms) was greater than 1024 µg/mL and the “MIC, C. albicans biofilm matrix” value (S. aureus [7]; S. aureus, in presence of C. albicans biofilm matrix) was 1 µg/mL. The “MIC, polymicrobial biofilm matrix” value (S. aureus [7]; S. aureus, in presence of polymicrobial biofilm matrix) was 2 µg/mL and the MIC (S. aureus [7]; Staphylococcus aureus, read-out: MIC, medium only) was 2 µg/mL (≈ 1.38 µM).

From patent US20180344763A1, “METHODS FOR ADVERSELY AFFECTING BIOFILMS” (Commonwealth Scientific and Industrial Research Organisation, priority 2015, published 2018)
